Key:
Conditions in all cases: FGFR binding data
FGFR1 = target: T1, FGFR1 (Homo sapiens, UniProt P11362); experiment: Kinase binding assay (kinase-tagged T7 phage, affinity beads, qPCR readout), FGFR1
T1 construct: made in house; host or cells: E. coli derived from BL21, infected with T7 phage
Method in brief: (§1)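 Dissociation constants were measured by bead-capture competition at 0.9% DMSO, room temperature, 1 hour. qPCR of eluted kinase supplied the signal.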

FGFR3 = target: T2, FGFR3 (Homo sapiens, UniProt P22607); experiment: Kinase binding assay (kinase-tagged T7 phage, affinity beads, qPCR readout), FGFR3
T2 construct: made in house; host or cells: E. coli derived from BL21, infected with T7 phage
T2 sequence (P22607 23-806): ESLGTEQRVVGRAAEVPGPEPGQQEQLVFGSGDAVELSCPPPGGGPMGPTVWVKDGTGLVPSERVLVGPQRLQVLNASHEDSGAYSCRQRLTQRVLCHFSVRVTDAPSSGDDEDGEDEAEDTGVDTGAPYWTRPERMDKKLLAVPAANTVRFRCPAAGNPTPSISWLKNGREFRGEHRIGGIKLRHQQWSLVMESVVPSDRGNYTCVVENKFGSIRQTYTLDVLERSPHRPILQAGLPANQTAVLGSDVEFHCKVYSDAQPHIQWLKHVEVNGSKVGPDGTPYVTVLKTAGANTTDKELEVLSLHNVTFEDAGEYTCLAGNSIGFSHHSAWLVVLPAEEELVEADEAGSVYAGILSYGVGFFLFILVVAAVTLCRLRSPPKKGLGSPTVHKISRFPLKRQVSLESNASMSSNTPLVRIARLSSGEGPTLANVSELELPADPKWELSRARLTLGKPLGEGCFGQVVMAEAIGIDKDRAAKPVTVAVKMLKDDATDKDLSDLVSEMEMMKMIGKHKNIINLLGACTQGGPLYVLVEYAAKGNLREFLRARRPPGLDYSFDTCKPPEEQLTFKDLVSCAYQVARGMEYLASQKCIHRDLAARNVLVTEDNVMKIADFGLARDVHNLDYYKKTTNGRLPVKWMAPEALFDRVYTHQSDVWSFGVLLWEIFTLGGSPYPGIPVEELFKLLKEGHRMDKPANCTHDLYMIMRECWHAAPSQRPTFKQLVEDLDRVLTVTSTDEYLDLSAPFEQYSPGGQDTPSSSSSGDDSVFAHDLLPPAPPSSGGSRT
Method in brief: as §1

FGFR3 (V555M) = target: T3, FGFR3 (V555M) (Homo sapiens, UniProt P22607, V555M); experiment: Kinase binding assay (kinase-tagged T7 phage, affinity beads, qPCR readout), FGFR3 (V555M)
T3 construct: made in house; host or cells: E. coli derived from BL21, infected with T7 phage
T3 sequence (P22607 23-806 V555M): as the sequence (P22607 23-806) above, with V533M counted along it
Method in brief: as §1

FGFR2 = target: T4, FGFR2 (Homo sapiens, UniProt P21802); experiment: Kinase binding assay (kinase-tagged T7 phage, affinity beads, qPCR readout), FGFR2
T4 construct: made in house; host or cells: E. coli derived from BL21, infected with T7 phage
T4 sequence (P21802 22-821): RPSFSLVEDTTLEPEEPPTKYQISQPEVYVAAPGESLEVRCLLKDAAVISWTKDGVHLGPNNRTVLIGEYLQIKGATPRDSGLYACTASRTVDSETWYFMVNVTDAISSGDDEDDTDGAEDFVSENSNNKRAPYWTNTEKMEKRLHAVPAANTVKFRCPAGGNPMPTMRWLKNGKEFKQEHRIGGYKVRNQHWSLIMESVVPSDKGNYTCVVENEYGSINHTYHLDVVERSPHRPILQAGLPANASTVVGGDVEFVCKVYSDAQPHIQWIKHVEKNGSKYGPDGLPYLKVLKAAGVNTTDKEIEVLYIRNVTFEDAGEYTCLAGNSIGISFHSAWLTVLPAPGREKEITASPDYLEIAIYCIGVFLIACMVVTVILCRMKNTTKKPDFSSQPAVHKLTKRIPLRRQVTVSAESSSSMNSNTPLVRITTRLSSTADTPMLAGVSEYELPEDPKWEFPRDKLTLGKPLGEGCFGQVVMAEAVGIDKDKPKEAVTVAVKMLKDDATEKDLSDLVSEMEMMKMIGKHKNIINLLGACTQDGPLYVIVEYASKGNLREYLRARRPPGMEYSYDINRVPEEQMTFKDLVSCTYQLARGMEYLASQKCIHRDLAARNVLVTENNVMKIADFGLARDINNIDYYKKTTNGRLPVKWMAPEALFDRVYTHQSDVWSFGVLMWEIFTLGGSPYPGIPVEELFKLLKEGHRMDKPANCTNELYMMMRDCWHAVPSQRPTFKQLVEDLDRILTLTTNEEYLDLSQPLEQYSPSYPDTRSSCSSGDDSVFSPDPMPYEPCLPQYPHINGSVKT
Method in brief: as §1

T1 sequence (P11362 22-822): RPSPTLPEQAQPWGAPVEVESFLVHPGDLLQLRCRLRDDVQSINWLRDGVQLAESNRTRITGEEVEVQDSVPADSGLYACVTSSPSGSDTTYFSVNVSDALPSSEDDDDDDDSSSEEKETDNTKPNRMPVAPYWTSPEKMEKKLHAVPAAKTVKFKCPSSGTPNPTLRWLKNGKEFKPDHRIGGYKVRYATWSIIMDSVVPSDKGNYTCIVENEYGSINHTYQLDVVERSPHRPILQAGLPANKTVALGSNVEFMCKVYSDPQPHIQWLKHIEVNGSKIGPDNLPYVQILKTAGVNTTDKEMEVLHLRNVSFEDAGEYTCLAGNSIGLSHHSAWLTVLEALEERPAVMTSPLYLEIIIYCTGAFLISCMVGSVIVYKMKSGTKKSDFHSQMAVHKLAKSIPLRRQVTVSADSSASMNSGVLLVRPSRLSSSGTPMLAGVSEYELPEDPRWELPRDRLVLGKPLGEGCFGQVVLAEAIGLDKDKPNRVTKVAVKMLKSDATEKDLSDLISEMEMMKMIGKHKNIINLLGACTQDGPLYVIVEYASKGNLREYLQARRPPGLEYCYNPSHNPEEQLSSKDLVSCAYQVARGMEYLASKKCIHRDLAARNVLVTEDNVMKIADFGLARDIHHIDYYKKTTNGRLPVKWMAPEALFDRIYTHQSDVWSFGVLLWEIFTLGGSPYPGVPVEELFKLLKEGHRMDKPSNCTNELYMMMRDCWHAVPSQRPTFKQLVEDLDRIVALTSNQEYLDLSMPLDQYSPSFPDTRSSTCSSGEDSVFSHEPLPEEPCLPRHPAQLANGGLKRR

| Kd (FGFR1) [nM] | Kd (FGFR3) [nM] | Kd (FGFR3 (V555M)) [nM] | Kd (FGFR2) [nM] | SMILES |
| --- | --- | --- | --- | --- |
| 250 to 1000 | 100 to 250 | 250 to 1000 | 250 to 1000 | Cc1cn(-c2nc(Nc3cnn(C[C@@H](C)O)c3)ncc2F)c2ncc(NC(=O)/C=C/CN3CCOCC3)cc12 [Example 197, (E)-N-[1-[5-fluoro-2-[[1-[(2R)-2-hydroxypropyl]pyrazol-4-yl]amino]pyrimidin-4-yl]-3-methyl-pyrrolo[2,3-b]pyridin-5-yl]-4-morpholino-but-2-enamide] |
| 250 to 1000 | 100 to 250 | 250 to 1000 | 100 to 250 | Cc1cn(-c2nc(Nc3cnn(C[C@H](C)O)c3)ncc2F)c2ncc(NC(=O)/C=C/CN3CCOCC3)cc12 [Example 198, (E)-N-[1-[5-fluoro-2-[[1-[(2S)-2-hydroxypropyl]pyrazol-4-yl]amino]pyrimidin-4-yl]-3-methyl-pyrrolo[2,3-b]pyridin-5-yl]-4-morpholino-but-2-enamide] |
| 100 to 250 | 0.1 to 100 | 0.1 to 100 | 0.1 to 100 | Cc1cn(-c2nc(Nc3cnn(C)c3C)ncc2F)c2ncc(NC(=O)/C=C/CN(C)C)cc12 [Example 199, (E)-4-(dimethylamino)-N-[1-[2-[(1,5-dimethylpyrazol-4-yl)amino]-5-fluoro-pyrimidin-4-yl]-3-methyl-pyrrolo[2,3-b]pyridin-5-yl]but-2-enamide] |
| 0.1 to 100 | 0.1 to 100 | 0.1 to 100 | 0.1 to 100 | Cc1cnc(Nc2cn(C)nc2C)nc1-n1cc(C)c2cc(NC(=O)/C=C/CN(C)C)cnc21 [Example 200, (E)-4-(dimethylamino)-N-[1-[2-[(1,3-dimethylpyrazol-4-yl)amino]-5-methyl-pyrimidin-4-yl]-3-methyl-pyrrolo[2,3-b]pyridin-5-yl]but-2-enamide] |
| 0.1 to 100 | 0.1 to 100 | 0.1 to 100 | 0.1 to 100 | C=CC(=O)Nc1ccc2c(c1)c(C)cn2-c1nc(Nc2cn(CCOC)nc2C)ncc1F [Example 202, N-[1-[5-fluoro-2-[[1-(2-methoxyethyl)-3-methyl-pyrazol-4-yl]amino]pyrimidin-4-yl]-3-methyl-indol-5-yl]prop-2-enamide] |
| 0.1 to 100 | 0.1 to 100 | 0.1 to 100 | 0.1 to 100 | C=CC(=O)Nc1ccc2c(c1)c(C)cn2-c1nc(Nc2cnn(CCOC(C)C)c2)ncc1F [Example 203, N-[1-[5-fluoro-2-[[1-(2-isopropoxyethyl)pyrazol-4-yl]amino]pyrimidin-4-yl]-3-methyl-indol-5-yl]prop-2-enamide] |
| 0.1 to 100 | 0.1 to 100 | 0.1 to 100 | 0.1 to 100 | C=CC(=O)Nc1ccc2c(c1)c(C)cn2-c1nc(Nc2cnn(CC(C)OC)c2)ncc1F (centres unmarked) [Example 204, N-[1-[5-fluoro-2-[[1-(2-methoxypropyl)pyrazol-4-yl]amino]pyrimidin-4-yl]-3-methyl-indol-5-yl]prop-2-enamide] |
| 0.1 to 100 | 0.1 to 100 | 0.1 to 100 | 0.1 to 100 | C=CC(=O)Nc1ccc2c(c1)c(C)cn2-c1nc(Nc2cnn(C[C@H](C)OC)c2)ncc1F [Example 205] |
| > 1000 | > 1000 | > 1000 | > 1000 | C=CC(=O)Nc1ccc2c(c1)c(C)cn2-c1cc(Nc2cn(C)nc2C)nnc1C [Example 209, N-[1-[6-[(1,3-dimethylpyrazol-4-yl)amino]-3-methyl-pyridazin-4-yl]-3-methyl-indol-5-yl]prop-2-enamide] |
| 0.1 to 100 | 0.1 to 100 | 0.1 to 100 | 0.1 to 100 | C=CC(=O)Nc1ccc2c(c1)c(C)cn2-c1nc(Nc2cnn(C[C@@H](C)OC)c2)ncc1F [Example 210, N-[1-[5-fluoro-2-[[1-[(2R)-2-methoxypropyl]pyrazol-4-yl]amino]pyrimidin-4-yl]-3-methyl-indol-5-yl]prop-2-enamide] |
| > 1000 | > 1000 | > 1000 | > 1000 | Cc1nn(C)cc1Nc1ncc(F)c(-n2cc(C)c3cc(NC(=O)/C=C/CN4CCOCC4)cnc32)n1 [Example 213, (E)-N-[1-[2-[(1,3-dimethylpyrazol-4-yl)amino]-5-fluoro-pyrimidin-4-yl]-3-methyl-pyrrolo[2,3-b]pyridin-5-yl]-4-morpholino-but-2-enamide] |
| 0.1 to 100 | 0.1 to 100 | 0.1 to 100 | 0.1 to 100 | C=CC(=O)Nc1ccc2c(c1)c(C)cn2-c1nc(Nc2cnn(C[C@@H](C)O)c2C)ncc1F [Example 216, N-[1-[5-fluoro-2-[[1-[(2R)-2-hydroxypropyl]-5-methyl-pyrazol-4-yl]amino]pyrimidin-4-yl]-3-methyl-indol-5-yl]prop-2-enamide] |
| 0.1 to 100 | 0.1 to 100 | 0.1 to 100 | 0.1 to 100 | C=CC(=O)Nc1ccc2c(c1)c(C)cn2-c1ncnc(Nc2cnn(C)c2)n1 [Example 218, N-[3-methyl-1-[4-[(1-methylpyrazol-4-yl)amino]-1,3,5-triazin-2-yl]indol-5-yl]prop-2-enamide] |
| > 1000 | 100 to 250 | 250 to 1000 | 250 to 1000 | C=CC(=O)Nc1ccc2c(c1)c(C)cn2-c1cc(Nc2cnn(C)c2)ncn1 [Example 219, N-[3-methyl-1-[6-[(1-methylpyrazol-4-yl)amino]pyrimidin-4-yl]indol-5-yl]prop-2-enamide] |
| 250 to 1000 | 100 to 250 | 100 to 250 | 250 to 1000 | C=CC(=O)Nc1ccc2c(c1)c(C)cn2-c1ncnc(Nc2cn(C)nc2C)n1 [Example 220, N-[1-[4-[(1,3-dimethylpyrazol-4-yl)amino]-1,3,5-triazin-2-yl]-3-methyl-indol-5-yl]prop-2-enamide] |
| > 1000 | > 1000 | > 1000 | > 1000 | C=CC(=O)Nc1ccc2c(c1)c(C)cn2-c1cc(Nc2cnn(C)c2)nnc1C [Example 221, N-[3-methyl-1-[3-methyl-6-[(1-methylpyrazol-4-yl)amino]pyridazin-4-yl]indol-5-yl]prop-2-enamide] |
| > 1000 | > 1000 | > 1000 | > 1000 | C=CC(=O)Nc1ccc2c(c1)c(C)cn2-c1cc(Nc2cn(C)nc2C)ncn1 [Example 222, N-[1-[6-[(1,3-dimethylpyrazol-4-yl)amino]pyrimidin-4-yl]-3-methyl-indol-5-yl]prop-2-enamide] |
| 0.1 to 100 | 0.1 to 100 | 0.1 to 100 | 0.1 to 100 | C=CC(=O)Nc1ccc2c(c1)c(C)cn2-c1cc(Nc2cnn(C)c2)ncc1C [Example 223, N-[3-methyl-1-[5-methyl-2-[(1-methylpyrazol-4-yl)amino]-4-pyridyl]indol-5-yl]prop-2-enamide] |
| 250 to 1000 | 100 to 250 | 100 to 250 | 250 to 1000 | C=CC(=O)Nc1ccc2c(c1)c(C)cn2-c1cc(Nc2cn(C)nc2C)ncc1C [Example 224, N-[1-[2-[(1,3-dimethylpyrazol-4-yl)amino]-5-methyl-4-pyridyl]-3-methyl-indol-5-yl]prop-2-enamide] |
| > 1000 | 250 to 1000 | 250 to 1000 | > 1000 | C=CC(=O)Nc1ccc2c(c1)c(C)cn2-c1nc(Nc2cn(C)nc2C)nnc1Cl [Example 225, N-[1-[6-chloro-3-[(1,3-dimethylpyrazol-4-yl)amino]-1,2,4-triazin-5-yl]-3-methyl-indol-5-yl]prop-2-enamide] |

From US20240190849A1, “AMINOPYRIMIDINE COMPOUNDS AND METHODS OF THEIR USE” (TYRA BIOSCIENCES, INC., priority 2021, published 2024)
